# Reference: US8404692B2, “Pyrimidin-4-yl-3, 4-dihydro-2H-pyrrolo [1,2A] pyrazin-1-one compounds” (Cyclacel Limited, priority 2005, dated 2013)
# Biological target: T1, aurora-A (human) (Homo sapiens, UniProt O14965)
# T1 construct: purchased Upstate, Dundee, UK
# T1 sequence (O14965 1-403): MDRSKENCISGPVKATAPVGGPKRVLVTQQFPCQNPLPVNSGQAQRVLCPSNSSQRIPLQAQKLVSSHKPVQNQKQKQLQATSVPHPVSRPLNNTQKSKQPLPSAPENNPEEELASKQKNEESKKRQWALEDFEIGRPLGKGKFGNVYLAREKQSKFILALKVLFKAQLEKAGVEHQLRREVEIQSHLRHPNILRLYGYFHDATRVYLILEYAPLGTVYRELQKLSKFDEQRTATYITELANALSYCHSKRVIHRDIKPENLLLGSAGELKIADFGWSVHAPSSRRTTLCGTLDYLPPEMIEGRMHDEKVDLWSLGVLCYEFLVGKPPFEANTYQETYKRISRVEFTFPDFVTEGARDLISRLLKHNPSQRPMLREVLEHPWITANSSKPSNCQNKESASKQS
# Test: Aurora-A (human) kinase assay
# Assay type: biochemical
# Conditions: read-out: Activity (Aurora A activity, IC50 grading)
# Method: This was achieved by measurement of incorporation of radioactive phosphate from ATP into Kemptide substrate (LRRASLG), upon phosphorylation by commercially obtained aurora-A (human, Upstate; Dundee, UK). Assays were performed using 96-well plates and appropriate assay buffers (20 mM Tris, 25 mM β-glycerophosphate, 5 mM EGTA, 1 mM DTT, 1 mM sodium vanadate, pH 7.5), into which were added 2-5 ng of active enzyme with 500 μM substrate (Kemptide). The reactions were initiated by addition of MATP mix (15 mM MgCl2+100 μM ATP with 15-25 kBq per well of [γ-^32P]-ATP) and mixtures incubated for 30 min at 30° C. Reactions were stopped by addition of an equal volume of 75 mM aq orthophosphoric acid, followed by filtration through p81 filterplates (Whatman Polyfiltronics, Kent, UK). After washing 4 times with 75 mM aq orthophosphoric acid, plates were dried, scintillant added and incorporated radioactivity measured in a scintillation counter (TopCount, Packard Instruments, Pangbourne, Berks, UK). Compounds for kinase assay were made up as 10 mM stocks in DMSO and diluted into 10% DMSO in assay buffer. Data was analysed using curve-fitting software (XLfit version 4.0.2, IDBS, Guildford, Surrey, UK) to determine IC50 values (concentration of test compound which inhibits kinase activity by 50%).
row,Compound,IC50 [µM]
1,"Cc1c(-c2ccnc(Nc3cccc(O)c3)n2)c(C)n2c1C(=O)NCC2 [Example I-31, 7-[2-(3-Hydroxy-phenylamino)-pyrimidin-4-yl]-6,8-dimethyl-3,4-dihydro-2H-pyrrolo[1,2-a]pyrazin-1-one]",< 1
2,"Cc1c(-c2ccnc(Nc3ccc(S(C)(=O)=O)cc3)n2)c(C)n2c1C(=O)NCC2 [Example I-33, 7-[2-(4-Methanesulfonyl-phenylamino)-pyrimidin-4-yl]-6,8-dimethyl-3,4-dihydro-2H-pyrrolo[1,2-a]pyrazin-1-one]",< 0.1
3,"Cc1c(-c2ccnc(Nc3cccc(S(=O)(=O)N4CCOCC4)c3)n2)c(C)n2c1C(=O)NCC2 [Example I-35, 8-Dimethyl-7-{2-[3-(morpholine-4-sulfonyl)-phenylamino]-pyrimidin-4-yl}-3,4-dihydro-2H-pyrrolo[1,2-a]pyrazin-1-one]",< 1
4,"Cc1ccc(Nc2nccc(-c3c(C)c4n(c3C)CCNC4=O)n2)cc1S(=O)(=O)N1CCOCC1 [Example I-36, 6,8-Dimethyl-7-{2-[4-methyl-3-(morpholine-4-sulfonyl)-phenylamino]-pyrimidin-4-yl}-3,4-dihydro-2H-pyrrolo[1,2-a]pyrazin-1-one]",< 1
5,"Cc1c(-c2ccnc(Nc3ccc(N4CCSCC4)cc3)n2)c(C)n2c1C(=O)NCC2 [Example I-37, 6,8-Dimethyl-7-[2-(4-thiomorpholin-4-yl-phenylamino)-pyrimidin-4-yl]-3,4-dihydro-2H-pyrrolo[1,2-a]pyrazin-1-one]",< 1
6,"COCCNS(=O)(=O)c1ccc(Nc2nccc(-c3c(C)c4n(c3C)CCNC4=O)n2)cc1 [Example I-38, 4-[4-(6,8-Dimethyl-1-oxo-1,2,3,4-tetrahydro-pyrrolo[1,2-a]pyrazin-7-yl)-pyrimidin-2-ylamino]-N-(2-methoxy-ethyl)-benzenesulfonamide]",< 1
7,"CC(=O)Nc1ccc(Nc2nccc(-c3c(C)c4n(c3C)CCNC4=O)n2)cc1Cl [Example I-47, N-{2-Chloro-4-[4-(6,8-dimethyl-1-oxo-1,2,3,4-tetrahydro-pyrrolo[1,2-a]pyrazin-7-yl)-pyrimidin-2-ylamino]-phenyl}-acetamide]",< 1
8,"Cc1c(-c2ccnc(Nc3ccc(OCCN4CCOCC4)cc3)n2)c(C)n2c1C(=O)NCC2 [Example I-51, 6,8-Dimethyl-7-{2-[4-(2-morpholin-4-yl-ethoxy)-phenylamino]-pyrimidin-4-yl}-3,4-dihydro-2H-pyrrolo[1,2-a]pyrazin-1-one]",< 1
9,"Cc1c(-c2ccnc(Nc3cccc(-c4cncnc4)c3)n2)c(C)n2c1C(=O)NCC2 [Example I-53, 6,8-Dimethyl-7-[2-(3-pyrimidin-5-yl-phenylamino)-pyrimidin-4-yl]-3,4-dihydro-2H-pyrrolo[1,2-a]pyrazin-1-one]",< 0.1
10,"Cc1c(-c2ccnc(Nc3ccc(S(=O)(=O)N4CCCC4)cc3)n2)c(C)n2c1C(=O)NCC2 [Example I-55, 6,8-Dimethyl-7-{2-[4-(pyrrolidine-1-sulfonyl)-phenylamino]-pyrimidin-4-yl}-3,4-dihydro-2H-pyrrolo[1,2-a]pyrazin-1-one]",< 1
11,"Cc1c(-c2ccnc(Nc3ccc(OCc4ccccc4)cc3)n2)c(C)n2c1C(=O)NCC2 [Example I-57, 7-[2-(4-Benzyloxy-phenylamino)-pyrimidin-4-yl]-6,8-dimethyl-3,4-dihydro-2H-pyrrolo[1,2-a]pyrazin-1-one]",< 10
12,"Cc1c(-c2ccnc(Nc3cccc(C(=O)c4ccccc4)c3)n2)c(C)n2c1C(=O)NCC2 [Example I-58, 7-[2-(3-Benzoyl-phenylamino)-pyrimidin-4-yl]-6,8-dimethyl-3,4-dihydro-2H-pyrrolo[1,2-a]pyrazin-1-one]",< 1

# Second part, the compound after the results:
row,IC50 [µM],Compound
1,< 0.1,"Cc1c(-c2ccnc(Nc3cccc(S(C)(=O)=O)c3)n2)c(C)n2c1C(=O)NCC2 [Example I-32, 7-[2-(3-Methanesulfonyl-phenylamino)-pyrimidin-4-yl]-6,8-dimethyl-3,4-dihydro-2H-pyrrolo[1,2-a]pyrazin-1-one]"
2,< 0.1,"Cc1c(-c2ccnc(Nc3cccc(CCC(=O)O)c3)n2)c(C)n2c1C(=O)NCC2 [Example I-34, 3-{3-[4-(6,8-Dimethyl-1-oxo-1,2,3,4-tetrahydro-pyrrolo[1,2-a]pyrazin-7-yl)-pyrimidin-2-ylamino]-phenyl}-propionic acid]"
3,< 1,"Cc1ccc(Nc2nccc(-c3c(C)c4n(c3C)CCNC4=O)n2)cc1 [Example I-39, 6,8-Dimethyl-7-(2-p-tolylamino-pyrimidin-4-yl)-3,4-dihydro-2H-pyrrolo[1,2-a]pyrazin-1-one]"
4,< 1,"Cc1c(-c2ccnc(Nc3ccc(C(C)C(=O)O)cc3)n2)c(C)n2c1C(=O)NCC2 (centres unmarked) [Example I-40, 2-{4-[4-(6,8-Dimethyl-1-oxo-1,2,3,4-tetrahydro-pyrrolo[1,2-a]pyrazin-7-yl)-pyrimidin-2-ylamino]-phenyl}-propionic acid]"
5,< 0.1,"Cc1c(-c2ccnc(Nc3cccc(OCC(=O)O)c3)n2)c(C)n2c1C(=O)NCC2 [Example I-41, {3-[4-(6,8-Dimethyl-1-oxo-1,2,3,4-tetrahydro-pyrrolo[1,2-a]pyrazin-7-yl)-pyrimidin-2-ylamino]-phenoxy}-acetic acid]"
6,< 1,"Cc1c(-c2ccnc(Nc3cccc(NS(C)(=O)=O)c3)n2)c(C)n2c1C(=O)NCC2 [Example I-42, N-{3-[4-(6,8-Dimethyl-1-oxo-1,2,3,4-tetrahydro-pyrrolo[1,2-a]pyrazin-7-yl)-pyrimidin-2-ylamino]-phenyl}-methanesulfonamide]"
7,< 1,"CNS(=O)(=O)c1ccc(Nc2nccc(-c3c(C)c4n(c3C)CCNC4=O)n2)cc1OC [Example I-43, 4-[4-(6,8-Dimethyl-1-oxo-1,2,3,4-tetrahydropyrrolo[1,2-a]pyrazin-7-yl)-pyrimidin-2-ylamino]-2-methoxy-N-methyl-benzenesulfonamide]"
8,< 1,"Cc1c(-c2ccnc(Nc3ccc(N4CCOC4=O)cc3)n2)c(C)n2c1C(=O)NCC2 [Example I-44, 6,8-Dimethyl-7-{2-[4-(2-oxo-oxazolidin-3-yl)-phenylamino]-pyrimidin-4-yl}-3,4-dihydro-2H-pyrrolo[1,2-a]pyrazin-1-one]"
9,< 0.1,"Cc1c(-c2ccnc(Nc3ccc4c(c3)COCO4)n2)c(C)n2c1C(=O)NCC2 [Example I-45, 7-[2-(4H-Benzo[1,3]dioxin-6-ylamino)-pyrimidin-4-yl]-6,8-dimethyl-3,4-dihydro-2H-pyrrolo[1,2-a]pyrazin-1-one]"
10,< 0.1,"Cc1nccc(-c2cccc(Nc3nccc(-c4c(C)c5n(c4C)CCNC5=O)n3)c2)n1 [Example I-46, 6,8-Dimethyl-7-{2-[3-(2-methyl-pyrimidin-4-yl)-phenylamino]-pyrimidin-4-yl}-3,4-dihydro-2H-pyrrolo[1,2-a]pyrazin-1-one]"
11,< 1,"Cc1cc2cc(Nc3nccc(-c4c(C)c5n(c4C)CCNC5=O)n3)ccc2[nH]1 [Example I-48, 6,8-Dimethyl-7-[2-(2-methyl-1H-indol-5-ylamino)-pyrimidin-4-yl]-3,4-dihydro-2H-pyrrolo[1,2-a]pyrazin-1-one]"
12,< 1,"Cc1c(-c2ccnc(Nc3cccc(-c4cnco4)c3)n2)c(C)n2c1C(=O)NCC2 [Example I-49, 6,8-Dimethyl-7-[2-(3-oxazol-5-yl-phenylamino)-pyrimidin-4-yl]-3,4-dihydro-2H-pyrrolo[1,2-a]pyrazin-1-one]"
13,< 1,"Cc1c(-c2ccnc(Nc3ccc(S(=O)(=O)N4CCOCC4)cc3)n2)c(C)n2c1C(=O)NCC2 [Example I-50, 6,8-Dimethyl-7-{2-[4-(morpholine-4-sulfonyl)-phenylamino]-pyrimidin-4-yl}-3,4-dihydro-2H-pyrrolo[1,2-a]pyrazin-1-one]"
14,< 1,"Cc1c(-c2ccnc(Nc3ccc(-c4cnco4)cc3)n2)c(C)n2c1C(=O)NCC2 [Example I-52, 6,8-Dimethyl-7-[2-(4-oxazol-5-yl-phenylamino)-pyrimidin-4-yl]-3,4-dihydro-2H-pyrrolo[1,2-a]pyrazin-1-one]"
15,< 1,"Cc1c(-c2ccnc(Nc3ccc(Cc4ccncc4)cc3)n2)c(C)n2c1C(=O)NCC2 [Example I-54, 6,8-Dimethyl-7-[2-(4-pyridin-4-ylmethyl-phenylamino)-pyrimidin-4-yl]-3,4-dihydro-2H-pyrrolo[1,2-a]pyrazin-1-one]"
16,< 0.1,"Cc1c(-c2ccnc(Nc3ccc(S(=O)(=O)N4CCCCC4)cc3)n2)c(C)n2c1C(=O)NCC2 [Example I-56, 6,8-Dimethyl-7-{2-[4-(piperidine-1-sulfonyl)-phenylamino]-pyrimidin-4-yl}-dihydro-2H-pyrrolo[1,2-a]pyrazin-1-one]"
17,< 0.1,"CC(=O)Nc1cccc(Nc2nccc(-c3c(C)c4n(c3C)CCNC4=O)n2)c1 [Example I-59, N-{3-[4-(6,8-Dimethyl-1-oxo-1,2,3,4-tetrahydro-pyrrolo[1,2-a]pyrazin-7-yl)-pyrimidin-2-ylamino]-phenyl}-acetamide]"
